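Dose response: 5 concentrations. Exposure: 48 h. Format: 96-well plates. Endpoint: linear interpolation; highest concentration if not reached. Here, GI50 denotes the concentration required for 50% inhibition of growth.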 Activity calls are given as the source filed them. Cut-off read from the data, not from the text of the source: active = GI50 up to about 1.1 µM and inactive = higher.
Key:
Test in all cases: DTP human tumour cell line panel, 48 h
[1] = test system: M14
[2] = test system: HCC 2998
[3] = test system: SK-MEL-5
[4] = test system: NCI-H460
[5] = test system: SNB-19
[6] = test system: SK-OV-3
[7] = test system: LOX IMVI
[8] = test system: OVCAR-4
[9] = test system: HT-29
[10] = test system: CCRF-CEM
[11] = test system: U-251
[12] = test system: Malme-3M
[13] = test system: A549
[14] = test system: SR
[15] = test system: 786-0
[16] = test system: SW-620
[17] = test system: RPMI-8226
[18] = test system: HOP-92
[19] = test system: NCI-H226

Measured: GI50

O=C(O)c1c[nH]c2c(ccc3ncccc32)c1=O
inactive: [1] > 100 µM | [2] > 100 µM | [3] > 100 µM | [4] > 100 µM | [5] > 100 µM | [6] > 100 µM | [7] > 100 µM | [8] > 100 µM | [9] > 100 µM | [10] > 100 µM | [11] > 100 µM | [12] > 100 µM | [13] > 100 µM | [14] > 100 µM | [15] > 100 µM | [16] > 100 µM

COc1cc(C(N)=O)c(OC)c(OC)c1OC
inactive: [17] > 100 µM | [1] > 100 µM | [2] > 100 µM | [18] > 100 µM | [3] > 100 µM | [4] > 100 µM | [5] > 100 µM | [6] > 100 µM | [7] > 100 µM | [8] > 100 µM | [9] > 100 µM | [10] > 100 µM | [11] > 100 µM | [13] > 100 µM | [15] > 100 µM | [16] > 100 µM | [19] > 100 µM

CN1CCn2c(Br)ccc2C1=O
inactive: [17] > 100 µM | [1] > 100 µM | [2] > 100 µM | [4] > 100 µM | [5] > 100 µM | [7] > 100 µM | [8] > 100 µM | [9] > 100 µM | [10] > 100 µM | [11] > 100 µM | [12] > 100 µM | [13] > 100 µM | [14] > 100 µM | [15] > 100 µM | [16] > 100 µM | [19] > 100 µM

CCOC(=O)C(=O)Nc1c(C(C)C)cccc1C(C)C
inactive: [1] > 100 µM | [2] > 100 µM | [18] > 100 µM | [3] > 100 µM | [4] > 100 µM | [5] > 100 µM | [6] > 100 µM | [8] > 100 µM | [9] > 100 µM | [10] > 100 µM | [11] > 100 µM | [12] > 100 µM | [13] > 100 µM | [14] > 100 µM | [15] > 100 µM | [16] > 100 µM | [19] > 100 µM

O=S1(=O)CSc2ccc3ccccc3c2-c2c1ccc1ccccc21
inactive: [1] > 100 µM | [2] > 100 µM | [18] > 100 µM | [3] > 100 µM | [4] > 100 µM | [5] > 100 µM | [7] > 100 µM | [8] > 100 µM | [9] > 100 µM | [10] > 100 µM | [11] > 100 µM | [12] > 100 µM | [13] > 100 µM | [14] > 100 µM | [15] > 100 µM | [16] > 100 µM

CN(C)CC1CCCC/C1=N/O (centres undefined)
inactive: [17] > 100 µM | [1] > 100 µM | [2] > 100 µM | [18] > 100 µM | [3] > 100 µM | [4] > 100 µM | [6] > 100 µM | [7] > 100 µM | [8] > 100 µM | [9] > 100 µM | [10] > 100 µM | [11] > 100 µM | [12] > 100 µM | [13] > 100 µM | [15] > 100 µM | [16] > 100 µM | [19] > 100 µM

Cc1nc2cc3nc4ccccc4c(O)c3cc2s1
inactive: [17] > 100 µM | [1] > 100 µM | [2] > 100 µM | [18] > 100 µM | [3] > 100 µM | [4] > 100 µM | [5] > 100 µM | [6] > 100 µM | [8] > 100 µM | [9] > 100 µM | [10] > 100 µM | [11] > 100 µM | [12] > 100 µM | [13] > 100 µM | [14] > 100 µM | [15] > 100 µM | [16] > 100 µM | [19] > 100 µM

NC(=S)N/N=C1\C(=O)N(c2cccc([N+](=O)[O-])c2)C(=O)C1C(=O)Nc1cccc([N+](=O)[O-])c1 (centres undefined)
inactive: [17] > 100 µM | [1] > 100 µM | [2] > 100 µM | [18] > 100 µM | [3] > 100 µM | [5] > 100 µM | [6] > 100 µM | [7] > 100 µM | [8] > 100 µM | [9] > 100 µM | [10] > 100 µM | [11] > 100 µM | [12] > 100 µM | [13] > 100 µM | [15] > 100 µM | [16] > 100 µM | [19] > 100 µM

Reference: ChEMBL document CHEMBL1201862, “PubChem BioAssay data set” (2004)
